The text below walks through data of article PMC4914250, “Cancer therapeutic approach based on conformational stabilization of mutant p53 protein by small peptides” (Oncotarget, 2016).

The test system of test [1] is p53 target genes p21, PUMA and Mdm2 in H1299-tsp53^V135A cells. As to the kind of experiment: Induction of p53 target genes by qRT-PCR, H1299-tsp53 cells. It is filed as cell-based, human. To be noted: peptide 5μg/ml, 18 hours, 37°C. The method, then: Since p53 works primarily as a transcription factor, we tested the ability of lead peptides to induce p53 target gene activation. To that end we used H1299-tsp53^V135A cells, which express temperature sensitive (ts) p53 and allow examination of WT and mutant p53 states in the same cellular background. In the representative experiment shown in Figure 3A, cells were exposed to the indicated peptides (5μg/ml) and then either transferred to 32°C or placed back at 37°C. Cells were harvested 18 hours later, and mRNA was extracted and subjected to qRT-PCR analysis. Expression levels of 3 representative p53 target genes, p21, PUMA and Mdm2, were examined. Values were normalized to non-treated cells at 37°C, and expression at 32°C, where the ts-p53 is in a WT conformation, served as positive control. […] A similar analysis was performed on ES2 ovarian cancer cells, expressing endogenous mp53^S241F, compared to ES2 p53KO cells (Figure 3B).
Figure 3 Peptides binding to p53 and their effect on the expression of p53 target genes A. - Bar graph illustrating the effect of selected peptides on activation of mutp53 by measuring transactivation of p53 target genes as determined by qRT-PCR. H1299 cells stably transfected with mutp53 (ts) A135V were used. The indicated peptides were added directly to the medium at a concentration of 5ug/ml and cells were then either moved to 32°C or returned to 37°C. 18 hours later cells were harvested, extracted for RNA, cDNA was synthesis subjected to qrt time PCR analysis. The expression level of 3 representative p53 target genes, p21, PUMA and Mdm2, were examined. The figure illustrates the relative fold induction of transcription of the cells treated with the selected peptides as compared to non-treated cells. B. - Bar graph illustrating the effect of selected peptides on activation of mutp53 by measuring transactivation of p53 target genes as determined by qRT-PCR. ES2and ES2-p53KO cells were treated with indicated peptides 5ug/ml, for 18 hours. Cells were harvested, and cDNA was subjected to qRT-PCR analysis. Expression of 4 representative p53 target genes, p21, PUMA, Mdm2 and CD95, was examined. The figure illustrates the relative fold induction of transcription in cells treated with the selected peptides compared to non-treated cells. C. - Binding of mutp53 to promoters of representative p53 target genes in live cells, assessed by chromatin immunoprecipitation. BT-549 breast cancer cells endogenously expressing mutant p53^R249S were treated for 5 hours with a mix of 3 pCAPs - 250, 242 and 325. […] DNA cross-linked p53 was immunoprecipitated, and binding to the p53 responsive elements of the PUMA, p21, CD95 and MDM2 gene promoters was quantified by qPCR. […] Results are presented as relative absorbance at 450nm. […]
For orientation: Real-time PCR tracks product formation cycle by cycle.

Test [2] has as its system SW-480 colon cancer cells. As to the kind of experiment: SW480 colon carcinoma xenograft, intratumoral injection. It is filed as in vivo, nude mice. How it is done: The lead peptides were evaluated also in a colon carcinoma xenograft model, employing SW480 cells that harbor p53^R273H, P309S. The experiment was conducted on 15 mice, randomly divided into 3 groups: a control group treated with a cocktail of 3 ineffective peptides, a group treated with a cocktail of 3 effective pCAPs (250, 308, 325) and a group treated singly with pCAP-325. Tumors were allowed to reach visible size for 10 days before onset of treatment. […] Figures 6F, 6G show the mean weight and volume of excised tumors.
Figure 6 Effect of lead peptides on tumor progression in vivo; colon cancer xenograft model In vivo effect of the indicated peptides in a mouse xenograft model of SW-480 colon cancer cells. 10^6 cells were injected and tumors were allowed to establish for 10 days. […] D., E. - Box plot of tumor volume and weight, respectively. TEXT PRINTED IN THE PICTURE: (A) Control peptides: SW-480 colon carcinoma cells (p53^273,309): 240% | (B) pCAP mix: SW-480 colon carcinoma cells (p53^273,309): -97% | (C) pCAP-325: SW-480 colon carcinoma cells (p53^273,309): -93.6% DOUBTS OF THE COPYIST ABOUT THIS PICTURE: Panels A-C: no measure is printed with the percentages (240%, -97%, -93.6%); each stands only beside a bracket at the right end of the plot
Mice (6 weeks athymic nude) were injected subcutaneously with 2×10^5-10^6 cells into each […]. All cell lines employed in these experiments stably express a luciferase reporter gene to enable monitoring of tumor growth by live imaging. 4-18 days later, when tumors reached visible size, the mice were randomly divided into several groups: a control group, treated with either a single control peptide or a mix of 2-3 control pCAPs, and groups treated with effective peptides, either a single peptide or a mix of three peptides. Peptides were administered by intratumoral injection of 6-10μg peptide per tumor in 40μl PBS, three times a week. Tumor growth over time was measured by live imaging, using the IVIS2000 system. Exposure time was calibrated to 20 seconds. 16 images were taken over 8 minutes and peak luminescence values were taken for each tumor. Experiments were conducted until tumors reached maximal allowed size of 1cm^3, at which time were sacrificed and tumors extracted, measured and weighed.

Test [3] has as its system recombinant WTp53 or mutp53R175H. As to the kind of experiment: ELISA of binding of WTp53 and mutp53 to plate-conjugated peptides. To be noted: peptides conjugated to wells, peptides recruited preferentially WTp53. For orientation: An ELISA detects its analyte on a solid surface through an enzyme-linked reagent.
Setting [4] is: Experiment 4, SW-480 p53^R273H,P309S.
Where [5] appears, read: Experiment 4, SW-480 p53^R273H,P309S, excised tumors.

With IRGRIIR [pCAP-54], in test [1], the “expression of the p53 target genes, H1299-tsp53” value is “significant increase”.
As for “LRCLLLLIGRVGRRRRRRRR [pCAP-24R, pCAP-24 with poly arginine tail]”, in test [1], the “expression of the p53 target genes, H1299-tsp53” value is given as “significant increase”.
Same read-out and setting: for “SFILFIRRGRLGRRRRRRRRR [pCAP-60R, pCAP-60 with poly arginine tail]” the value was “significant increase”.
Same read-out and setting: the entry for “WNHHHSTPHPAHRRRRRR [pCAP-97R, pCAP-97 with poly arginine tail]” is “significant increase”.
As for myr-RRIRDPRILLLHFD [pCAP-325], in test [2] (setting [4]), the “% of tumors total regression” value is recorded as 20% and the “IVIS average ratio to day 0” value is 6.4%. Also, in test [2] (setting [5]), the Samples average size turned out to be 0.12 and the Samples average weight was found to be 0.1. Moreover, the tumor size decrease in test [2] (SW480 xenograft, intratumoral three times a week, mix 2μg of each peptide or pCAP-325 6μg, live imaging) was determined as 93.6%.
In the case of myr-RRKHNKHRPEPDSDER [pCAP-221], the “recruitment of mutp53 lower than of WTp53” value in test [3] is listed as 50%-80%.
Same read-out and setting: the figure for myr-RRLIVRILKLPNPPER [pCAP-242] is 50%-80%.
